# Laboratory results published in US5502060A, “HIV protease inhibitors” (Merck & Co., Inc., priority 1994, dated 1996).
# Target: HIV protease (Human immunodeficiency virus type 1 group M subtype B, UniProt P03366)
# Test: biochemical
# Settings: protease expressed in Escherichia coli; peptide substrate Val-Ser-Gln-Asn-(betanapthyl)Ala-Pro-Ile-Val; 50 mM Na acetate, pH 5.5, 30° C., 1 hour; HPLC
# Procedure: Assay for Inhibition of Microbial Expressed Viral Protease
# Inhibition studies of the reaction of the protease expressed in Escherichia coli with a peptide substrate Val-Ser-Gln-Asn-(betanapthyl)Ala-Pro-Ile-Val, 0.5 mg/mL at the time the reaction is initiated! were in 50 mM Na acetate, pH 5.5, at 30° C. for 1 hour. Various concentrations of inhibitor in 1.0 ul DMSO were added to 25 ul of the peptide solution in water. The reaction is initiated by the addition of 15 ul of 0.33 nM protease (0.11 ng) in a solution of 0.133 M Na acetate pH 5.5 and 0.26% bovine serum albumin. The reaction was quenched with 160 ul of 5% phosphoric acid. Products of the reaction were separated by HPLC (VYDAC wide pore 5 cm C-18reverse phase, acetonitrile gradient, 0.1% phosphoric acid). The extent of inhibition of the reaction was determined from the peak heights of the products.
row,IC50,Compound
1,~0.059 µM,"CC(C)(C)NC(=O)[C@@H]1C[C@@H]2CCCC[C@@H]2CN1C[C@@H](O)[C@H](Cc1ccccc1)NC(=O)O[C@H]1CCS(=O)(=O)C1 [B, Cis-N-tert-butyl-decahydro-2 2(R)-hydroxy-4-phenyl-3(S)-3(S)-1,1-dioxotetr ahydrothien-3-yloxycarbonylamino !-butyl!-(4aS, 8aS )-isoquinoline-3(S)-carboxamide hydrate]"
2,~0.26 µM,"CC(C)(C)NC(=O)[C@@H]1C[C@@H]2CCCC[C@@H]2CN1C[C@@H](O)[C@H](Cc1ccccc1)NC(=O)O[C@H]1CCOC1 [Compound A, cis-N-tert-butyl-decahydro-2 2(R)hydroxy-4-phenyl-3(S)-3(S)-tetrahydrofuranyloxycarbonylamino !-butyl!-(4aS, 8aS )-isoquinoline-3(S)carboxamide]"
3,~0.004 µM,"CC(C)[C@@H]1[C@H](OC(=O)N[C@@H](Cc2ccccc2)[C@H](O)CN2C[C@H]3CCCC[C@H]3C[C@H]2C(=O)NC(C)(C)C)CCS1(=O)=O [Compound C, N-tert-butyl-decahydro-2 2(R)-hydroxy-4-phenyl-3(S)-1,1-dioxo-2(R)-methylethyl-3(R)-tetrahydrothienyloxycarbonylamino!butyl!-(4aS, 8aS) isoquinoline-3(S)-carboxamide]"
